In patent US12077503B2, “Substituted cyclic amides and their use as herbicides” (FMC CORPORATION, priority 2015, dated 2024):

Tests used:
Format in all cases: in vivo
[1] = test system: green foxtail (Setaria viridis); assay: Test A preemergence; details: for Foxtail, Green plant response rating: 31 g ai/ha, 0 to 100 scale where 0 is no effect and 100 is complete control; for Plant response rating, Foxtail, Green: 125 g ai/ha, 0 to 100 scale (0 no effect, 100 complete control)
How it was run: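 Visual injury scores from 0, no effect, to 100, complete control, were assigned versus untreated controls roughly 10 d after treatment in the greenhouse. Test chemicals, formulated with surfactant in a non-phytotoxic solvent, were applied to planted seeds as a preemergence soil spray or postemergence to one- to two-leaf plants 2 to 10 cm tall, in loam–sand soil.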

[2] = test system: Galium (catchweed bedstraw, Galium aparine); assay: Test C postemergence; details: scale 0 to 100, 0 no effect, 100 complete control
Description: (§1) Seeds of plant species selected from blackgrass (Alopecurus myosuroides), ryegrass, Italian (Italian ryegrass, Lolium multiflorum), wheat (winter wheat, Triticum aestivum), Galium (catchweed bedstraw, Galium aparine), corn (Zea mays), crabgrass, large (large crabgrass, Digitaria sanguinalis), foxtail, giant (giant foxtail, Setaria faberii), johnsongrass (Sorghum halepense), lambsquarters (Chenopodium album), morningglory (Ipomoea coccinea), nutsedge, yellow (yellow nutsedge, Cyperus esculentus), pigweed (Amaranthus retroflexus), ragweed (common ragweed, Ambrosia elatior), soybean (Glycine max), barnyardgrass (Echinochloa crus-galli), oilseed rape (Brassica napus), waterhemp (common waterhemp, Amaranthus rudis) and velvetleaf (Abutilon theophrasti) were planted into a blend of loam soil and sand and treated preemergence with test chemicals formulated in a non-phytotoxic solvent mixture which included a surfactant.
(§2) At the same time, plants selected from these crop and weed species and also Kochia (Kochia scoparia), oat, wild (wild oat, Avena fatua), and chickweed (common chickweed, Stellaria media) were planted in pots containing Sunshine Redi-Earth® planting medium comprising spaghnum peat moss, vermiculite, starter nutrients and dolomitic limestone and treated with postemergence applications of test chemicals formulated in the same manner. Plants ranged in height from 2 to 18 cm (1- to 4-leaf stage) for postemergence treatments. Treated plants and controls were maintained in a greenhouse for 13 to 15 d, after which time all species were compared to controls and visually evaluated. Plant response ratings, summarized in Table C, are based on a scale of 0 to 100 where 0 is no effect and 100 is complete control. A dash (-) response means no test result.

[3] = test system: barnyardgrass (Echinochloa crus-galli); assay: Test C postemergence; details: scale 0 to 100, 0 no effect, 100 complete control
Description: as §1, §2

[4] = test system: blackgrass (Alopecurus myosuroides); assay: Test C postemergence; details: scale 0 to 100, 0 no effect, 100 complete control
Description: as §1, §2

[5] = test system: chickweed (common chickweed, Stellaria media); assay: Test C postemergence; details: scale 0 to 100, 0 no effect, 100 complete control
Description: as §1, §2

corn (Zea mays) = assay: Test C postemergence; details: scale 0 to 100, 0 no effect, 100 complete control
Description: as §1, §2

[6] = test system: crabgrass, large (large crabgrass, Digitaria sanguinalis); assay: Test C postemergence; details: scale 0 to 100, 0 no effect, 100 complete control
Description: as §1, §2

[7] = test system: foxtail, giant (giant foxtail, Setaria faberii); assay: Test C postemergence; details: scale 0 to 100, 0 no effect, 100 complete control
Description: as §1, §2

[8] = test system: johnsongrass (Sorghum halepense); assay: Test C postemergence; details: scale 0 to 100, 0 no effect, 100 complete control
Description: as §1, §2

[9] = test system: lambsquarters (Chenopodium album); assay: Test C postemergence; details: scale 0 to 100, 0 no effect, 100 complete control
Description: as §1, §2

[10] = test system: nutsedge, yellow (yellow nutsedge, Cyperus esculentus); assay: Test C postemergence; details: scale 0 to 100, 0 no effect, 100 complete control
Description: as §1, §2

[11] = test system: oat, wild (wild oat, Avena fatua); assay: Test C postemergence; details: scale 0 to 100, 0 no effect, 100 complete control
Description: as §1, §2

[12] = test system: oilseed rape (Brassica napus); assay: Test C postemergence; details: scale 0 to 100, 0 no effect, 100 complete control
Description: as §1, §2

[13] = test system: pigweed (Amaranthus retroflexus); assay: Test C postemergence; details: scale 0 to 100, 0 no effect, 100 complete control
Description: as §1, §2

[14] = test system: ragweed (common ragweed, Ambrosia elatior); assay: Test C postemergence; details: scale 0 to 100, 0 no effect, 100 complete control
Description: as §1, §2

soybean (Glycine max) = assay: Test C postemergence; details: scale 0 to 100, 0 no effect, 100 complete control
Description: as §1, §2

[15] = test system: velvetleaf (Abutilon theophrasti); assay: Test C postemergence; details: scale 0 to 100, 0 no effect, 100 complete control
Description: as §1, §2

[16] = test system: wheat (winter wheat, Triticum aestivum); assay: Test C postemergence; details: scale 0 to 100, 0 no effect, 100 complete control
Description: as §1, §2

## CN1C[C@H](c2csc3c2CCC(F)(F)C3)[C@@H](C(=O)Nc2ccc(F)c(F)c2F)C1=O (racemic) [Compound 1368]
[1]
  Foxtail, Green plant response rating: 0
  Plant response rating, Foxtail, Green: 100

## CN1C[C@H](c2csc3c2CCC(F)(F)C3)[C@@H](C(=O)Nc2cccc(F)c2F)C1=O (racemic) [Compound 1369]
[1]
  Foxtail, Green plant response rating: 20
  Plant response rating, Foxtail, Green: 100

## CN1CC(c2ccc(F)c(F)c2)C(C(=O)Nc2ccccc2S(C)(=O)=O)C1=O (stereo not drawn) [Compound 640]
[2]; 31 g ai/ha
  Plant response rating, Galium: 50
[2]; 62 g ai/ha
  Plant response rating, Galium: 55
[2]; 125 g ai/ha
  Plant response rating, Galium: 60
[2]; 250 g ai/ha
  Plant response rating, Galium: 65
[3]; 31 g ai/ha
  Plant response rating, Barnyardgrass: 0
[3]; 62 g ai/ha
  Plant response rating, Barnyardgrass: 0
[3]; 125 g ai/ha
  Plant response rating, Barnyardgrass: 10
[3]; 250 g ai/ha
  Plant response rating, Barnyardgrass: 10
[4]; 31 g ai/ha
  Plant response rating, Blackgrass: 0
[4]; 62 g ai/ha
  Plant response rating, Blackgrass: 0
[4]; 125 g ai/ha
  Plant response rating, Blackgrass: 0
[4]; 250 g ai/ha
  Plant response rating, Blackgrass: 0
[5]; 31 g ai/ha
  Plant response rating, Chickweed: 25
[5]; 62 g ai/ha
  Plant response rating, Chickweed: 0
[5]; 125 g ai/ha
  Plant response rating, Chickweed: 60
[5]; 250 g ai/ha
  Plant response rating, Chickweed: 35
Corn (Zea mays); 31 g ai/ha
  Plant response rating, Corn: 0
Corn (Zea mays); 62 g ai/ha
  Plant response rating, Corn: 0
Corn (Zea mays); 125 g ai/ha
  Plant response rating, Corn: 0
Corn (Zea mays); 250 g ai/ha
  Plant response rating, Corn: 0
[6]; 31 g ai/ha
  Plant response rating, Crabgrass, Large: 0
[6]; 62 g ai/ha
  Plant response rating, Crabgrass, Large: 0
[6]; 125 g ai/ha
  Plant response rating, Crabgrass, Large: 10
[6]; 250 g ai/ha
  Plant response rating, Crabgrass, Large: 35
[7]; 31 g ai/ha
  Plant response rating, Foxtail, Giant: 0
[7]; 62 g ai/ha
  Plant response rating, Foxtail, Giant: 0
[7]; 125 g ai/ha
  Plant response rating, Foxtail, Giant: 10
[7]; 250 g ai/ha
  Plant response rating, Foxtail, Giant: 65
[8]; 31 g ai/ha
  Plant response rating, Johnsongrass: 0
[8]; 62 g ai/ha
  Plant response rating, Johnsongrass: 0
[8]; 125 g ai/ha
  Plant response rating, Johnsongrass: 0
[8]; 250 g ai/ha
  Plant response rating, Johnsongrass: 0
[9]; 31 g ai/ha
  Plant response rating, Lambsquarters: 30
[9]; 62 g ai/ha
  Plant response rating, Lambsquarters: 20
[9]; 125 g ai/ha
  Plant response rating, Lambsquarters: 70
[9]; 250 g ai/ha
  Plant response rating, Lambsquarters: 40
[10]; 31 g ai/ha
  Plant response rating, Nutsedge, Yellow: 0
[10]; 62 g ai/ha
  Plant response rating, Nutsedge, Yellow: 0
[10]; 125 g ai/ha
  Plant response rating, Nutsedge, Yellow: 0
[10]; 250 g ai/ha
  Plant response rating, Nutsedge, Yellow: 10
[11]; 31 g ai/ha
  Plant response rating, Oat, Wild: 0
[11]; 62 g ai/ha
  Plant response rating, Oat, Wild: 0
[11]; 125 g ai/ha
  Plant response rating, Oat, Wild: 0
[11]; 250 g ai/ha
  Plant response rating, Oat, Wild: 5
[12]; 31 g ai/ha
  Plant response rating, Oilseed Rape: 20
[12]; 62 g ai/ha
  Plant response rating, Oilseed Rape: 15
[12]; 125 g ai/ha
  Plant response rating, Oilseed Rape: 50
[12]; 250 g ai/ha
  Plant response rating, Oilseed Rape: 60
[13]; 31 g ai/ha
  Plant response rating, Pigweed: 10
[13]; 62 g ai/ha
  Plant response rating, Pigweed: 35
[13]; 125 g ai/ha
  Plant response rating, Pigweed: 35
[13]; 250 g ai/ha
  Plant response rating, Pigweed: 55
[14]; 31 g ai/ha
  Plant response rating, Ragweed: 0
[14]; 62 g ai/ha
  Plant response rating, Ragweed: 25
[14]; 125 g ai/ha
  Plant response rating, Ragweed: 30
[14]; 250 g ai/ha
  Plant response rating, Ragweed: 55
Soybean (Glycine max); 31 g ai/ha
  Plant response rating, Soybean: 65
Soybean (Glycine max); 62 g ai/ha
  Plant response rating, Soybean: 10
Soybean (Glycine max); 125 g ai/ha
  Plant response rating, Soybean: 10
Soybean (Glycine max); 250 g ai/ha
  Plant response rating, Soybean: 5
[15]; 31 g ai/ha
  Plant response rating, Velvetleaf: 5
[15]; 62 g ai/ha
  Plant response rating, Velvetleaf: 70
[15]; 125 g ai/ha
  Plant response rating, Velvetleaf: 25
[15]; 250 g ai/ha
  Plant response rating, Velvetleaf: 30
[16]; 31 g ai/ha
  Plant response rating, Wheat: 0
[16]; 62 g ai/ha
  Plant response rating, Wheat: 0
[16]; 125 g ai/ha
  Plant response rating, Wheat: 0
[16]; 250 g ai/ha
  Plant response rating, Wheat: 0
